Measured values taken from patent publication US20230200390A1, “SELECTIVE HERBICIDES BASED ON SUBSTITUTED ISOXAZOLIN CARBOXAMIDES AND MEFENPYR-DIETHYL” (BAYER AKTIENGESELLSCHAFT, priority 2020, published 2023).

Assays:
Type in all cases: in vivo
[1] = tested on: spring barley, HORVS Montoya; assay: Seed treatment with safener; post-emergence herbicide, crop damage; details: for HER effect + SAF / Reduction [%] / Reduction [Difference]: mefenpyr-diethyl 0.5 g a.i./kg seed
Description: (§1) For safener seed treatment trials, sufficient seed amounts of the respective crops (spring wheat (TRZAS); spring barley (HORVS)) were weighed into screw cap glass bottles with a minimum volume trice of the seeds.
(§2) As a first step, specified safeners formulated as wettable powder (WP) or wettable granules (WG) were weighed out for the required dosages (g a.i./kg seed), corresponding to the seed amounts. The safener amounts were mixed with a coloured slurry blind formulation type, prediluted with milk at 3.5% fat rate (25 mgs slurry formulation plus 2 ml milk per 10 grams of seed). A tube roller was used for coating. The solutions were gradually pipetted each on the rotating seeds followed by coating for min. 3 hours until all liquid had been soaked up by the seeds. Thereafter, the coated seeds were put flat on open trays for drying over night at room temperature.
(§3) Treated seeds were then placed into pots (7 cm diameter) on the surface of sandy loam, pressed down, flat covered with additional soil and finally covered with sandy soil, also pressed down, watered, and kept under good growth conditions in a greenhouse, until the plants had reached 2-leaf-stage (BBCH 12).
(§4) At that stage, post-emergence application of the specified herbicides was done on:
(§5) a) pot sets containing plants with safener-coated seeds as described above,
(§6) b) as a reference, pot sets of plants without seed treatment.
(§7) The herbicides were formulated as wettable powder (WP). Equivalent to the spray area, compound amounts were weighed out and diluted related to the water application rate (300 l/ha) to an aqueous suspension plus additive (1 l/ha MERO). Dosage related equivalents were conventionally sprayed on trays with the potted plants.
(§8) After application, the test plants were kept under good growth conditions in a greenhouse.
(§9) Assessment timings were 10 and 21 days after treatment (DAT) with the herbicide, by visual scoring of the crop damage in % (comparison of untreated with treated plants, either sprayed only with herbicide or with herbicide on plants with treated seeds).

[2] = tested on: spring wheat, TRZAS Triso; assay: as above; details: for HER effect + SAF [%] (crop damage) / Reduction [%] / Reduction [Difference]: mefenpyr-diethyl 0.5 g a.i./kg seed; for HER effect [%] (crop damage, herbicide without safener): no safener
Description: as §1, §2, §3, §4, §5, §6, §7, §8, §9

[3] = tested on: spring barley, HORVS Montoya; assay: Tank-mix; post-emergence: crop damage by herbicide with/without safener mefenpyr-diethyl
Protocol: (§10) Seeds of crops (spring wheat, TRZAS; spring barley, HORVS; maize, ZEAMA) were placed in sandy loam soil in peat pots, covered with soil and cultivated in a greenhouse under good growth conditions. Two to three weeks after sowing, the test plants were treated at the 1 to 3-leaf stage. The herbicide/safener active compound combinations according to the invention, formulated as wettable powders or emulsion concentrates, and, in parallel tests, the correspondingly formulated individual active compounds were sprayed onto the green parts of the plants in various dosages using an amount of water of 300 l/ha (converted).
(§11) The pots were returned under good growing conditions in a glasshouse and a visual assessment of herbicidal effects was made at intervals from 1 to 3 weeks after herbicide application (DAT=days after treatment). Assessment was on a percentage basis in comparison with untreated control plants (0%=no injury, 100%=complete kill).

[4] = tested on: spring wheat, TRZAS Triso; assay: as above
Protocol: as §10, §11

[5] = HER 8 g a.i./ha post-emergence, 10 DAT
[6] = HER 32 g a.i./ha post-emergence, 10 DAT
[7] = HER 8 g a.i./ha + mefenpyr-diethyl 50 g a.i./ha, 10 DAT
[8] = HER 32 g a.i./ha + mefenpyr-diethyl 100 g a.i./ha, 10 DAT
[9] = herbicide alone 8 g a.i./ha, 10 DAT
[10] = HER 2 g a.i./ha + mefenpyr-diethyl 50 g a.i./ha, 21 DAT
[11] = HER 8 g a.i./ha + mefenpyr-diethyl 50 g a.i./ha, 21 DAT
[12] = HER 24 g a.i./ha post-emergence, 21 DAT
[13] = HER 24 g a.i./ha + mefenpyr-diethyl 100 g a.i./ha, 21 DAT
[14] = herbicide alone 24 g a.i./ha, 21 DAT
[15] = HER 1.5 g a.i./ha + mefenpyr-diethyl 50 g a.i./ha, 21 DAT
[16] = HER 6 g a.i./ha + mefenpyr-diethyl 50 g a.i./ha, 21 DAT
[17] = HER 2 g a.i./ha + mefenpyr-diethyl 50 g a.i./ha, 10 DAT
[18] = HER 8 g a.i./ha + mefenpyr-diethyl 100 g a.i./ha, 10 DAT

With `COC(=O)C1COCC1NC(=O)C1(C)CC(c2cc(F)cc(F)c2)=NO1` (mixture of isomers) [Example 1.93] the “HER effect + SAF” value [1, 5] was 30%, the “Reduction [%]” value [1, 5] was 65% and the “Reduction [Difference]” value [1, 5] was 55. The “HER effect + SAF” value [1, 6] was 70%, the “Reduction [%]” value [1, 6] was 22% and the “Reduction [Difference]” value [1, 6] was 20. For the same molecule, the HER effect ([1]; herbicide alone 8 g a.i./ha post-emergence, 10 DAT) was 85%, the HER effect ([1]; herbicide alone 32 g a.i./ha post-emergence, 10 DAT) was 90% and the “HER effect + SAF [%] (crop damage)” value ([2]; 21 DAT, HER dose 2 g a.i./ha) was 0%. The “Reduction [%]” value ([2]; 21 DAT, HER dose 2 g a.i./ha) was 100%, the “Reduction [Difference]” value ([2]; 21 DAT, HER dose 2 g a.i./ha) was 85 and the “HER effect [%] (crop damage, herbicide without safener)” value ([2]; 21 DAT, HER dose 2 g a.i./ha) was 85%. The “HER effect + SAF [%] (crop damage)” value ([2]; 21 DAT, HER dose 8 g a.i./ha) was 10%, the “Reduction [%]” value ([2]; 21 DAT, HER dose 8 g a.i./ha) was 89% and the “Reduction [Difference]” value ([2]; 21 DAT, HER dose 8 g a.i./ha) was 83. For the same molecule, the “HER effect [%] (crop damage, herbicide without safener)” value ([2]; 21 DAT, HER dose 8 g a.i./ha) was 93%, the “HER effect + SAF [%] (crop damage)” value ([2]; 21 DAT, HER dose 32 g a.i./ha) was 20% and the “Reduction [%]” value ([2]; 21 DAT, HER dose 32 g a.i./ha) was 79%. For the same molecule, the “Reduction [Difference]” value ([2]; 21 DAT, HER dose 32 g a.i./ha) was 75, the “HER effect [%] (crop damage, herbicide without safener)” value ([2]; 21 DAT, HER dose 32 g a.i./ha) was 95% and the “HER effect + SAF” value [3, 7] was 10%. For the same molecule, the “Reduction [%]” value [3, 7] was 88%, the “Reduction [Difference]” value [3, 7] was 75 and the “HER effect + SAF” value [3, 8] was 30%. The “Reduction [%]” value [3, 8] was 67%, the “Reduction [Difference]” value [3, 8] was 60 and the HER effect [3, 9] was 85%. The HER effect ([3]; herbicide alone 32 g a.i./ha, 10 DAT) was 90%, the “HER effect + SAF” value [4, 10] was 10% and the “Reduction [%]” value [4, 10] was 88%. The “Reduction [Difference]” value [4, 10] was 75, the “HER effect + SAF” value [4, 11] was 50% and the “Reduction [%]” value [4, 11] was 46%. The “Reduction [Difference]” value [4, 11] was 43, the HER effect ([4]; herbicide alone 2 g a.i./ha, 21 DAT) was 85% and the HER effect ([4]; herbicide alone 8 g a.i./ha, 21 DAT) was 93%.
With `C=CC1(C(=O)NC2C=C(C(=O)OCC#N)OC2)CC(c2cc(F)cc(F)c2)=NO1` (stereo not shown) [Example 1.91] the “HER effect + SAF” value [1, 12] was 10%, the “Reduction [%]” value [1, 12] was 67% and the “Reduction [Difference]” value [1, 12] was 20. The HER effect ([1]; herbicide alone 24 g a.i./ha post-emergence, 21 DAT) was 30%, the “HER effect + SAF [%] (crop damage)” value ([2]; 21 DAT, HER dose 1.5 g a.i./ha) was 10% and the “Reduction [%]” value ([2]; 21 DAT, HER dose 1.5 g a.i./ha) was 86%. For the same molecule, the “Reduction [Difference]” value ([2]; 21 DAT, HER dose 1.5 g a.i./ha) was 60, the “HER effect [%] (crop damage, herbicide without safener)” value ([2]; 21 DAT, HER dose 1.5 g a.i./ha) was 70% and the “HER effect + SAF [%] (crop damage)” value ([2]; 21 DAT, HER dose 6 g a.i./ha) was 20%. The “Reduction [%]” value ([2]; 21 DAT, HER dose 6 g a.i./ha) was 78%, the “Reduction [Difference]” value ([2]; 21 DAT, HER dose 6 g a.i./ha) was 70 and the “HER effect [%] (crop damage, herbicide without safener)” value ([2]; 21 DAT, HER dose 6 g a.i./ha) was 90%. For the same molecule, the “HER effect + SAF [%] (crop damage)” value ([2]; 21 DAT, HER dose 24 g a.i./ha) was 10%, the “Reduction [%]” value ([2]; 21 DAT, HER dose 24 g a.i./ha) was 88% and the “Reduction [Difference]” value ([2]; 21 DAT, HER dose 24 g a.i./ha) was 70. For the same molecule, the “HER effect [%] (crop damage, herbicide without safener)” value ([2]; 21 DAT, HER dose 24 g a.i./ha) was 80%, the “HER effect + SAF” value [3, 13] was 10% and the “Reduction [%]” value [3, 13] was 67%. For the same molecule, the “Reduction [Difference]” value [3, 13] was 20, the HER effect [3, 14] was 30% and the “HER effect + SAF” value [4, 15] was 0%. For the same molecule, the “Reduction [%]” value [4, 15] was 100%, the “Reduction [Difference]” value [4, 15] was 70 and the “HER effect + SAF” value [4, 16] was 20%. The “Reduction [%]” value [4, 16] was 78%, the “Reduction [Difference]” value [4, 16] was 70 and the “HER effect + SAF” value [4, 13] was 50%. For the same molecule, the “Reduction [%]” value [4, 13] was 38%, the “Reduction [Difference]” value [4, 13] was 30 and the HER effect ([4]; herbicide alone 1.5 g a.i./ha, 21 DAT) was 70%. For the same molecule, the HER effect ([4]; herbicide alone 6 g a.i./ha, 21 DAT) was 90% and the HER effect [4, 14] was 80%.
For `COCCOC(=O)C1C=CC(NC(=O)C2(C(F)(F)F)CC(c3cc(F)cc(C#N)c3)=NO2)C1` (stereo not shown) [Example 1.2], the “HER effect + SAF [%] (crop damage)” value ([2]; 10 DAT, HER dose 8 g a.i./ha) was 10%, the “Reduction [%]” value ([2]; 10 DAT, HER dose 8 g a.i./ha) was 89% and the “Reduction [Difference]” value ([2]; 10 DAT, HER dose 8 g a.i./ha) was 80. For the same molecule, the “HER effect [%] (crop damage, herbicide without safener)” value ([2]; 10 DAT, HER dose 8 g a.i./ha) was 90%, the “HER effect + SAF [%] (crop damage)” value ([2]; 10 DAT, HER dose 32 g a.i./ha) was 30% and the “Reduction [%]” value ([2]; 10 DAT, HER dose 32 g a.i./ha) was 67%. For the same molecule, the “Reduction [Difference]” value ([2]; 10 DAT, HER dose 32 g a.i./ha) was 60, the “HER effect [%] (crop damage, herbicide without safener)” value ([2]; 10 DAT, HER dose 32 g a.i./ha) was 90% and the “HER effect + SAF” value [3, 17] was 0%. The “Reduction [%]” value [3, 17] was 100%, the “Reduction [Difference]” value [3, 17] was 20 and the “HER effect + SAF” value [3, 18] was 0%. For the same molecule, the “Reduction [%]” value [3, 18] was 100%, the “Reduction [Difference]” value [3, 18] was 30 and the HER effect ([3]; herbicide alone 2 g a.i./ha, 10 DAT) was 20%. The HER effect [3, 9] was 30%, the “HER effect + SAF” value [4, 7] was 50% and the “Reduction [%]” value [4, 7] was 44%. The “Reduction [Difference]” value [4, 7] was 40 and the HER effect [4, 9] was 90%.
